{
  "source": "ChEMBL document CHEMBL1137965",
  "about": "“Crucial role of the peroxyketal function for antimalarial activity in the G-factor series” (Bioorg Med Chem Lett, 2004)",
  "data": [
    {"tested_on": "Plasmodium falciparum", "assay": "In vitro inhibition of Plasmodium falciparum in [3H]hypoxanthine incorporation assay", "type": "functional, organism-based", "units": {"IC50": "µM"}, "values": [
      {"smiles": "CC1(C)C(=O)C2=C(OO[C@]3(C)CO[C@H]23)C(C)(C)C1=O", "IC50": "> 100"},
      {"smiles": "CC1(C)C(=O)C2=C[C@](C)(CO)OO[C@]2(O)C(C)(C)C1=O", "IC50": "> 100"},
      {"smiles": "CO[C@]12OO[C@@](C)(CO[Si](c3ccccc3)(c3ccccc3)C(C)(C)C)C=C1C(=O)C(C)(C)C(=O)C2(C)C", "IC50": 1.5},
      {"smiles": "CO[C@]12OOC(C)(C)C=C1C(=O)C(C)(C)C(=O)C2(C)C", "IC50": 0.28},
      {"smiles": "CO[C@]12OO[C@](C)(CO)C=C1C(=O)C(C)(C)C(=O)C2(C)C", "IC50": 40},
      {"smiles": "CC(=O)OC12OOC(C)(C)C=C1C(=O)C(C)(C)C(=O)C2(C)C", "note": "(configuration not stated)", "IC50": 20.5},
      {"smiles": "CC1(C)C(=O)C2=C[C@@](C)(CO)OO[C@]2(O)C(C)(C)C1=O", "IC50": "> 100"},
      {"smiles": "CC1(C)C=C2C(=O)C(C)(C)C(=O)C(C)(C)C2(F)OO1", "note": "(configuration not stated)", "IC50": "> 100"},
      {"smiles": "CC1(C)C=C2C(=O)C(C)(C)C(=O)C(C)(C)[C@@]2(O)OO1", "IC50": 36},
      {"smiles": "CO[C@]12OO[C@](C)(CO[Si](c3ccccc3)(c3ccccc3)C(C)(C)C)C=C1C(=O)C(C)(C)C(=O)C2(C)C", "IC50": 1.4},
      {"smiles": "CO[C@]12OO[C@@](C)(CO)C=C1C(=O)C(C)(C)C(=O)C2(C)C", "IC50": 1.4},
      {"smiles": "C[C@@H]1CC[C@H]2[C@@H](C)C(=O)O[C@@H]3O[C@@]4(C)CC[C@@H]1[C@]32OO4", "note": "[ARTEMISININ]", "IC50": 0.015}
    ]}
  ]
}
